In patent US11529363B2, “Methods of treating cancer in pediatric patients” (ARIAD Pharmaceuticals, Inc., priority 2018, dated 2022):

Legend:
[1] = first-in-human Study AP26113-11-101, tolerated dose in adults
Experimental: One additional dose level is planned if the 40 mg/m^2 QD→80 mg/m^2 QD dose is tolerated.

[2] = tested on: secondary ALK mutants of EML4-ALK; conditions: at relevant levels of exposure achieved in patients; cited from earlier work
[3] = cross-study comparison of brigatinib exposure, oral solution (AP26113-13-104) vs tablet (AP26113-16-110); type: in vivo, human
[4] = molecular target: ALK (Homo sapiens, UniProt Q9UM73); conditions: in vitro studies; cited from earlier work
ALK, sequence (Q9UM73 19-1620): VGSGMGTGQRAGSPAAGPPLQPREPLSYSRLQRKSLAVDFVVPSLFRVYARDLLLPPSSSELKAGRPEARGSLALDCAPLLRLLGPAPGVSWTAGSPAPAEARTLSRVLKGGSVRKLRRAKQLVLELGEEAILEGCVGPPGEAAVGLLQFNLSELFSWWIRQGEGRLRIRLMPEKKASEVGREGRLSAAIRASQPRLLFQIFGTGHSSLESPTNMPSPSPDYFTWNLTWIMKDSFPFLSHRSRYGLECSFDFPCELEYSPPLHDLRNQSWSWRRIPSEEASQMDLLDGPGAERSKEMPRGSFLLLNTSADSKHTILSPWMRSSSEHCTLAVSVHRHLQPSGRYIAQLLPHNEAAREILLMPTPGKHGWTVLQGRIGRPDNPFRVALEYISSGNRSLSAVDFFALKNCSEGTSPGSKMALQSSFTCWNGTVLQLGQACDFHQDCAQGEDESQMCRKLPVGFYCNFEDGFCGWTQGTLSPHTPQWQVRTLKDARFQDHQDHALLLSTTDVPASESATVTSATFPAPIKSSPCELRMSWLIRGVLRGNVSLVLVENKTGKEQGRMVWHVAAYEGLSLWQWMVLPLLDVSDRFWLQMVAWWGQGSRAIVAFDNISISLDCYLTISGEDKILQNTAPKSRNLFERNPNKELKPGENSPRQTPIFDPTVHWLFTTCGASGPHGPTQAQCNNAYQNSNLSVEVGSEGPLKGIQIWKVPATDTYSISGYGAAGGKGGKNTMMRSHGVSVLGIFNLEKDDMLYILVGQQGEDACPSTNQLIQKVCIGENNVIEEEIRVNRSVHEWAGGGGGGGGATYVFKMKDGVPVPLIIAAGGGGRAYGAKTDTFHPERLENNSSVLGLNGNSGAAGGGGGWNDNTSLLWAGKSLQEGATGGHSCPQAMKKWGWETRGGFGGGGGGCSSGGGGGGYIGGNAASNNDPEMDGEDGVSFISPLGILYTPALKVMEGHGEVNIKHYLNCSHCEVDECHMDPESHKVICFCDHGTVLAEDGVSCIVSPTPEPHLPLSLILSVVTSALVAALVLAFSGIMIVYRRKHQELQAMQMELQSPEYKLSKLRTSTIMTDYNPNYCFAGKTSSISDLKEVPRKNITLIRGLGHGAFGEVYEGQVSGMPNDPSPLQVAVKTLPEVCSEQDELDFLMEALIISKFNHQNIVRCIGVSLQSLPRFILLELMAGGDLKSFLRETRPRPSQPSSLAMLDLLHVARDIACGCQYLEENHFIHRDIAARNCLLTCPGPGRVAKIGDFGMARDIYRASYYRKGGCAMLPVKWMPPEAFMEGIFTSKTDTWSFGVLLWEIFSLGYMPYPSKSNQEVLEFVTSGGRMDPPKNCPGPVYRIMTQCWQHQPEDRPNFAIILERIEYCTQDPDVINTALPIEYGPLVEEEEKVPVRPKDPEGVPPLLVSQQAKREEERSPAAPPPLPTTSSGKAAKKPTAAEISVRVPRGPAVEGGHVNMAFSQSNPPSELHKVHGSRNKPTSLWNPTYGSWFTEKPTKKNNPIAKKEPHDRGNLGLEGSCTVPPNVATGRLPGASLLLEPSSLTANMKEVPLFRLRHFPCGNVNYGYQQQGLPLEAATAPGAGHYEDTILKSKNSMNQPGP

[5] = tested on: ALK+ NSCLC; experiment: phase 2 study AP26113-13-201 (ALTA trial) in adult patients with ALK+ NSCLC refractory to crizotinib; type: in vivo, human
Experimental: In the pivotal phase 2 study in adults with ALK+ NSCLC, 2 dose regimens were evaluated: (1) 90 mg QD; (2) 90 mg QD in Week 1 followed by escalation to 180 mg QD for those patients tolerating the 7-day 90 mg QD lead in. […] To mitigate the risk for EOPEs in pediatric patients, the doses of brigatinib selected for Week 1 of treatment are informed by adult clinical experience and designed to achieve systemic exposures not exceeding those at the 90 mg daily dose in adults.

[6] = pediatric, 280 mg/m^2; cited from earlier work
[7] = 90→180 mg QD, adult ALK+ NSCLC refractory to crizotinib

Row | Compound | highest acceptably tolerated dose [1] | activity against 17 secondary ALK mutants of EML4-ALK [2] | relative bioavailability of oral solution, AUC higher in reference to the tablet ([3]; oral solution vs tablet, adults) | oral solution/tablet AUC ratio ([3]; relative bioavailability factor) | ALK inhibitor potency compared with crizotinib, ceritinib and alectinib [4] | duration of response (DOR) [5, 7] | investigator-assessed confirmed ORR [5, 7] | progression-free survival (PFS) [5, 7] | PFS at 180 mg QD versus 90 mg QD ([5]; pivotal phase 2 study, adults with ALK+ NSCLC) | systemic exposure at MTD/RP2D higher than adult clinical exposures at 250 mg BID [6]
1 | COc1cc(N2CCC(N3CCN(C)CC3)CC2)ccc1Nc1ncc(Cl)c(Nc2ccccc2P(C)(C)=O)n1 [brigatinib, 5-chloro-N4-[2-(dimethylphosphoryl)phenyl]-N2-{2-methoxy-4-[4-(4-methylpiperazin-1-yl)piperidin-1-yl]phenyl}pyrimidine-2,4-diamine] | 240 mg QD | maintain substantial activity against all 17 secondary ALK mutants | approximately 42% | 1.42 | more potent ALK inhibitor than crizotinib, ceritinib, and alectinib | 13.8 months | 55.5% | 15.6 months | longer PFS at 180 mg QD | –
2 | C[C@@H](Oc1cc(-c2cnn(C3CCNCC3)c2)cnc1N)c1c(Cl)ccc(F)c1Cl [crizotinib] | – | – | – | – | – | – | – | – | – | ~50%
